Reference: BindingDB's records for PubMed 7910212 (Yamanouchi Pharmaceutical, 1994)
Values joined by “and” are separate entries in the source; they are usually repeats but may differ in a detail not shown here. Equal entries are not always repeated.

What was measured:
D(2) dopamine receptor = D(2) dopamine receptor (Rattus norvegicus, UniProt P61169)
[1] = molecular target: T1, Muscarinic acetylcholine receptor M2 (Rattus norvegicus, UniProt P10980)
T1 sequence (P10980 whole entry): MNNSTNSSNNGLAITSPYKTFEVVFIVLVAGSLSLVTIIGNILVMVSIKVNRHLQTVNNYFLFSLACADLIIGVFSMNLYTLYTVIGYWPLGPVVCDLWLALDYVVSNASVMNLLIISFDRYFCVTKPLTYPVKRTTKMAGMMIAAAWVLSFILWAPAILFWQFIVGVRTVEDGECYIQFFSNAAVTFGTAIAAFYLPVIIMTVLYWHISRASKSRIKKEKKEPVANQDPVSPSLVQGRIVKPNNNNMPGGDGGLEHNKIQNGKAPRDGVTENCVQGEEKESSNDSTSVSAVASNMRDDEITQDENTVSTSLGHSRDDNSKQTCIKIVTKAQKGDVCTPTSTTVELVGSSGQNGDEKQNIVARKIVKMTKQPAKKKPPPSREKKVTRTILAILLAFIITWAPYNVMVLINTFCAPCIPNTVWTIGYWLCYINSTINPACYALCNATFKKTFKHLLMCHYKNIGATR

[2] = molecular target: T2, Muscarinic acetylcholine receptor M1 (Rattus norvegicus, UniProt P08482)
T2 sequence (P08482 whole entry): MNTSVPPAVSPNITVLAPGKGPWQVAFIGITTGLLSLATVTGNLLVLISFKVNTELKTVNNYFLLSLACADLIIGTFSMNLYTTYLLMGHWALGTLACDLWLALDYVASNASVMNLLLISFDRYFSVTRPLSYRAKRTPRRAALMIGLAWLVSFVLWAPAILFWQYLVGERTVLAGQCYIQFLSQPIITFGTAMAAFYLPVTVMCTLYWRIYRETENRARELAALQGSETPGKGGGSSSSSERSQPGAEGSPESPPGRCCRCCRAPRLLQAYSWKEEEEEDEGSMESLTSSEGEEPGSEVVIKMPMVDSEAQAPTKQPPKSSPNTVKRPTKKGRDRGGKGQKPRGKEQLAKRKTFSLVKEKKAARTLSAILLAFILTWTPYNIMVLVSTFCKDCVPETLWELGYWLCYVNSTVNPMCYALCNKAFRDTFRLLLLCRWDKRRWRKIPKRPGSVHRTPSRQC

[3] = molecular target: Gamma-aminobutyric acid receptor subunit alpha-1 (Rattus norvegicus, UniProt P62813)
[4] = molecular target: T3, Alpha-2C adrenergic receptor (Rattus norvegicus, UniProt P22086)
T3 sequence (P22086 whole entry): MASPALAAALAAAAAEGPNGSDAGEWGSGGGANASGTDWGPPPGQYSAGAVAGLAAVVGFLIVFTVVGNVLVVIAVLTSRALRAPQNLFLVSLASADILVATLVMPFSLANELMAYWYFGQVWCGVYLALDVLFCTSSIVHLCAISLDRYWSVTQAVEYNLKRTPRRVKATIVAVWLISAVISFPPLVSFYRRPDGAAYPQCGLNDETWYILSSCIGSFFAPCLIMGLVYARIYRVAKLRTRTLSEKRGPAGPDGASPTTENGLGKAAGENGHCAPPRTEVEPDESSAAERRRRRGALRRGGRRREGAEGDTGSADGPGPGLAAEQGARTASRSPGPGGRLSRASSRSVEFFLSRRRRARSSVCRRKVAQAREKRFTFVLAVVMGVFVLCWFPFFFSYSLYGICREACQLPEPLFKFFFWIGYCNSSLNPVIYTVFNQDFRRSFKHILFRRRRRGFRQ

Mu-type opioid receptor = Mu-type opioid receptor (Rattus norvegicus, UniProt P33535)
[5] = molecular target: Sigma non-opioid intracellular receptor 1 (Rattus norvegicus, UniProt Q9R0C9)
Histamine H1 receptor = Histamine H1 receptor (Cavia porcellus, UniProt P31389)
[6] = molecular target: Muscarinic acetylcholine receptor M3 (Rattus norvegicus, UniProt P08483)
[7] = molecular target: T4, 5-hydroxytryptamine receptor 1A (Rattus norvegicus, UniProt P19327)
T4 sequence (P19327 whole entry): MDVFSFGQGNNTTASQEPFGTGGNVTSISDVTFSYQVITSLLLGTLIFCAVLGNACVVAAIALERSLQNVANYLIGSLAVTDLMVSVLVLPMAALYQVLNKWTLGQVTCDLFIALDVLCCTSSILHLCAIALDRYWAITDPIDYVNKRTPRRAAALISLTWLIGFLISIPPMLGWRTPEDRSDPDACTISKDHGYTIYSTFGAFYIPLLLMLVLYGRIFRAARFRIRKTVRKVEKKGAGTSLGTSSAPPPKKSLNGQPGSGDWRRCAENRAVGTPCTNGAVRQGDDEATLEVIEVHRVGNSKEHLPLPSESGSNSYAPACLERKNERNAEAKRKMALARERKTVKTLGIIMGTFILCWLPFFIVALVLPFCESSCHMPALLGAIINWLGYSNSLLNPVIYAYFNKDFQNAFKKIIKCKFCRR

[8] = molecular target: T5, Alpha-1A adrenergic receptor (Rattus norvegicus, UniProt P43140)
T5 sequence (P43140 whole entry): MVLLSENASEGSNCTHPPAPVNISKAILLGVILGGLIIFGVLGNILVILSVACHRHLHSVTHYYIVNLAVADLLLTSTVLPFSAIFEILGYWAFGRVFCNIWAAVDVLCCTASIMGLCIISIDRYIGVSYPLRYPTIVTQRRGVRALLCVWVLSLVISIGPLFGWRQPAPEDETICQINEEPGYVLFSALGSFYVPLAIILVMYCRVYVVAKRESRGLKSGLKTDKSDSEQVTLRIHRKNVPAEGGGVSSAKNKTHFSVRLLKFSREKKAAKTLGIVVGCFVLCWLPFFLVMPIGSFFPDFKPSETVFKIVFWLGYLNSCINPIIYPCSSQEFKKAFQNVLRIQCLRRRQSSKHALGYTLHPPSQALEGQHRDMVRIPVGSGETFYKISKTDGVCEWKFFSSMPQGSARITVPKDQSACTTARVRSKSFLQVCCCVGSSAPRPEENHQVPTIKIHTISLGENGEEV

D(1A) dopamine receptor = D(1A) dopamine receptor (Rattus norvegicus, UniProt P18901)
Glutamate receptor 3 = Glutamate receptor 3 (Rattus norvegicus, UniProt P19492)
[9] = molecular target: Kappa-type opioid receptor (Rattus norvegicus, UniProt P34975)
[10] = molecular target: Beta-2 adrenergic receptor (Rattus norvegicus, UniProt P10608)
[11] = molecular target: 5-hydroxytryptamine receptor 2A (Rattus norvegicus, UniProt P14842)
[12] = molecular target: T6, Gastrin/cholecystokinin type B receptor (Rattus norvegicus, UniProt P30553)
T6 sequence (P30553 whole entry): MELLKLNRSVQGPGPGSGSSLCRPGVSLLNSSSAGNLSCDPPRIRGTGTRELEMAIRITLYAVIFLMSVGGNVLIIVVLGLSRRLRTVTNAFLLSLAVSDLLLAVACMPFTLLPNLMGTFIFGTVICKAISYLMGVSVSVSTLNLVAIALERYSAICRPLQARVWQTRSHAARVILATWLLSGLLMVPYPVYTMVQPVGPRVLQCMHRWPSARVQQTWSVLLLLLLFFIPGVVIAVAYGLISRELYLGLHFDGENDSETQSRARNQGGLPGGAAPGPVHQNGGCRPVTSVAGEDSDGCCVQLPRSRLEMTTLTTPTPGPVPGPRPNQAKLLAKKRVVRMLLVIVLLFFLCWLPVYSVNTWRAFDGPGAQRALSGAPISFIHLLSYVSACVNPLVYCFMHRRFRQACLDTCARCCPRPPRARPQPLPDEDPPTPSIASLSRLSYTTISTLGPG

Chain of D(2) dopamine receptor (P61169 whole entry): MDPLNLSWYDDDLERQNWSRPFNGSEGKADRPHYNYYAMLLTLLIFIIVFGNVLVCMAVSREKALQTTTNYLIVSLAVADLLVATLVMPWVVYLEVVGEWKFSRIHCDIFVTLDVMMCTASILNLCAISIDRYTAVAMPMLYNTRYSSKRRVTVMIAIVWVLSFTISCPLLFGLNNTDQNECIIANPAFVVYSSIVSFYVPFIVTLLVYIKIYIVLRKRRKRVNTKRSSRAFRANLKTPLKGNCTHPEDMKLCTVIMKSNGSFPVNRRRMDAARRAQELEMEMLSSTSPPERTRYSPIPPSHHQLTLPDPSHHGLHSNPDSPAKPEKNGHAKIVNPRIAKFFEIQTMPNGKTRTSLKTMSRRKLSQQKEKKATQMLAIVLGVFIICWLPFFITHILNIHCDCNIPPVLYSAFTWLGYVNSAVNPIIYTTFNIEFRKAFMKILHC
Chain of Histamine H1 receptor (P31389 whole entry): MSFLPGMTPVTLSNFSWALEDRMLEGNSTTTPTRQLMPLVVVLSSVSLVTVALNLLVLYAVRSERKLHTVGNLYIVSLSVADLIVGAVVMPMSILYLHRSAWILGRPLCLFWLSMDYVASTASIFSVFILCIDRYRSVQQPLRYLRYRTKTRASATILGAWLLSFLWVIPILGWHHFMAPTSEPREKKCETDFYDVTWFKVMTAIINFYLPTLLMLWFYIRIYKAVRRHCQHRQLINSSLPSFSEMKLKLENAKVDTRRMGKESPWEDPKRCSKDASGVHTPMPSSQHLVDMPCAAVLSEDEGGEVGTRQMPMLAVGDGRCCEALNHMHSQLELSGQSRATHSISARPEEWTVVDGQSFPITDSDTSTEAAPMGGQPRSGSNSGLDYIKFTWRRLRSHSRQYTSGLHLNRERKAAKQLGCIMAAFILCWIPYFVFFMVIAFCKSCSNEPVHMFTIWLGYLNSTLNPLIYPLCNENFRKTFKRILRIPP
Chain of Mu-type opioid receptor (P33535 whole entry): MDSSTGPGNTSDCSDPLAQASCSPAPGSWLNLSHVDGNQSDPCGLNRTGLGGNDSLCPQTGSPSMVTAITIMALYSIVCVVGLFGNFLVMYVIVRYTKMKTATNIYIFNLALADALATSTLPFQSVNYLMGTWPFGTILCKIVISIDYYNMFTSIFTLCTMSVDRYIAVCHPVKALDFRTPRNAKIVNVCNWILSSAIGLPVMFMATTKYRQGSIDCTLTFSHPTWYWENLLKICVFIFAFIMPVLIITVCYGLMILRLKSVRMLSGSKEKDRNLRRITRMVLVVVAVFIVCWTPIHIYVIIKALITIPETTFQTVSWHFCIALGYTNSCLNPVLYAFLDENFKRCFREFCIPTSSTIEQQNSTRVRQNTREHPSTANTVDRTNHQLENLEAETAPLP
Chain of Kappa-type opioid receptor (P34975 whole entry): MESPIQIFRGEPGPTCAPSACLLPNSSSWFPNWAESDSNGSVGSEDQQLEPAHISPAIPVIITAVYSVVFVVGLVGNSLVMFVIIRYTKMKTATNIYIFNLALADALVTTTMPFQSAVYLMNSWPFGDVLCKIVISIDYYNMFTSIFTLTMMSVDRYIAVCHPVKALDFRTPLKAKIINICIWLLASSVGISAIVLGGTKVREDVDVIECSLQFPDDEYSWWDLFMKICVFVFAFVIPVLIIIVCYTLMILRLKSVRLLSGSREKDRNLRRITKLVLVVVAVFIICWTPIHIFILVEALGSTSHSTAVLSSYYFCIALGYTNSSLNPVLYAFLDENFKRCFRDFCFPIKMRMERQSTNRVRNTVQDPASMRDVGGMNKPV
Chain of Beta-2 adrenergic receptor (P10608 whole entry): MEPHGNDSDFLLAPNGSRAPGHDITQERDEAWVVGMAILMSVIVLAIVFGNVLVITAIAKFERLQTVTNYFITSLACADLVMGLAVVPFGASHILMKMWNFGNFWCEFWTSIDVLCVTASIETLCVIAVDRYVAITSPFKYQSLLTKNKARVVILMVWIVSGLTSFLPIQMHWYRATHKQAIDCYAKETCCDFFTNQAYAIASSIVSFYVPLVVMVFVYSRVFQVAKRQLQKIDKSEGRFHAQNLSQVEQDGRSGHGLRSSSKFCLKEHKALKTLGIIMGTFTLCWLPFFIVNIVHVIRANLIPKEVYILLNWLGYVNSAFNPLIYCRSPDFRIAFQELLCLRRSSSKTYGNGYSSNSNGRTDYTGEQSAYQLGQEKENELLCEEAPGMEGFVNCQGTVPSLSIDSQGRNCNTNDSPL
Chain of Gamma-aminobutyric acid receptor subunit alpha-1 (P62813 whole entry): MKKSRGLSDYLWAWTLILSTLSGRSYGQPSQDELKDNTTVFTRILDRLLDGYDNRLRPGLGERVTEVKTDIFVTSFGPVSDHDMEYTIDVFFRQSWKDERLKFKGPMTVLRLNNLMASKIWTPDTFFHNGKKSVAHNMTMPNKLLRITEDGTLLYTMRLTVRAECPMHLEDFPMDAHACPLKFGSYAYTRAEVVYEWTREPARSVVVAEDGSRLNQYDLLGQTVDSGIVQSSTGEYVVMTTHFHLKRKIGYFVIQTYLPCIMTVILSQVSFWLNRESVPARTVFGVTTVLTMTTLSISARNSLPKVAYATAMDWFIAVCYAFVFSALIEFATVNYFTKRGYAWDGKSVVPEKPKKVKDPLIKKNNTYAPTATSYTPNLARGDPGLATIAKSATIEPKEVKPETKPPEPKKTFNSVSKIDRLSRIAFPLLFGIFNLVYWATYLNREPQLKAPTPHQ
Chain of 5-hydroxytryptamine receptor 2A (P14842 whole entry): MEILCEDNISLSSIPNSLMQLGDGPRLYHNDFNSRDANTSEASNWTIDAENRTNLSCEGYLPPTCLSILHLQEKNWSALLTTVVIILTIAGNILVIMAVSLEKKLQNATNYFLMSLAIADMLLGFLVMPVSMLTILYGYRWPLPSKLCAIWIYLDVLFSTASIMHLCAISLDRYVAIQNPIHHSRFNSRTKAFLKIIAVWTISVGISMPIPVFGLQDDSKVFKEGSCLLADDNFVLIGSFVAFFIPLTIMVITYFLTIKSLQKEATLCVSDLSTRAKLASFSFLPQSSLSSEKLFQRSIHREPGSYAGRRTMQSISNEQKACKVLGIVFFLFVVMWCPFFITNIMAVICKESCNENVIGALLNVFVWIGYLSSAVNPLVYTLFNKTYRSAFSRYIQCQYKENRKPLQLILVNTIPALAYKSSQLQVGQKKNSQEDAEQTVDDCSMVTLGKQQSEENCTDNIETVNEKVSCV
Chain of Glutamate receptor 3 (P19492 whole entry): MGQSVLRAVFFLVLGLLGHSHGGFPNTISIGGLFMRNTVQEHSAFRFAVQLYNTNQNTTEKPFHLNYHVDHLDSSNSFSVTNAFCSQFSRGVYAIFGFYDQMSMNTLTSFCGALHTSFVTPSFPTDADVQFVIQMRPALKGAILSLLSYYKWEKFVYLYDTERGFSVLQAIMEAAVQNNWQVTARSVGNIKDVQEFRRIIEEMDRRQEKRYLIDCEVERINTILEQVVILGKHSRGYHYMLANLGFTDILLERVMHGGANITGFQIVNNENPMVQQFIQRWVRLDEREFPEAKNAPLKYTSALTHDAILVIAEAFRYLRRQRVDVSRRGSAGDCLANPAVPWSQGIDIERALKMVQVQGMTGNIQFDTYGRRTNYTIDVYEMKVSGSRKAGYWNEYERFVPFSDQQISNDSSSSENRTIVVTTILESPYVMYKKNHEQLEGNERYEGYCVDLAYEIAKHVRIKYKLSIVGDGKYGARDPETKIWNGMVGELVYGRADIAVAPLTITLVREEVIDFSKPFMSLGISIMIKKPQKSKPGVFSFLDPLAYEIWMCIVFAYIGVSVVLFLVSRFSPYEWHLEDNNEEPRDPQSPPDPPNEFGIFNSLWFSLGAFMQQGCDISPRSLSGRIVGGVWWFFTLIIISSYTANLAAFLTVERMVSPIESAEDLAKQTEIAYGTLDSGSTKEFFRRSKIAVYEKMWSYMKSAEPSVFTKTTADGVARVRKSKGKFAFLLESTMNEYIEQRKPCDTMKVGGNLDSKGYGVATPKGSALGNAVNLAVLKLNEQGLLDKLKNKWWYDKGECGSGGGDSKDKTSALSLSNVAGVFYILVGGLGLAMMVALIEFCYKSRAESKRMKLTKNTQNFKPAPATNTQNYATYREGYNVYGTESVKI
Chain of D(1A) dopamine receptor (P18901 whole entry): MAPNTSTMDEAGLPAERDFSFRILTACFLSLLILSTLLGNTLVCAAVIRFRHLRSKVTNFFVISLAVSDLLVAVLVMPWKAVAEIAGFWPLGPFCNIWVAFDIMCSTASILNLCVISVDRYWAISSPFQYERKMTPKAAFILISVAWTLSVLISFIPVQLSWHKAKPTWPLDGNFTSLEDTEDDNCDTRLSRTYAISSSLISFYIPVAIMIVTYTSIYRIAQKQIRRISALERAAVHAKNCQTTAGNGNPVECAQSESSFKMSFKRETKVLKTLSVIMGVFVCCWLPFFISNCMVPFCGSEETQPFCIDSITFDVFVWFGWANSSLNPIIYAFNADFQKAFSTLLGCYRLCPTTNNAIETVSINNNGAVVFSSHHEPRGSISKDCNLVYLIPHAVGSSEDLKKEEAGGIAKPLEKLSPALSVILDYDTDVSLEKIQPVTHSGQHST
Chain of Muscarinic acetylcholine receptor M3 (P08483 whole entry): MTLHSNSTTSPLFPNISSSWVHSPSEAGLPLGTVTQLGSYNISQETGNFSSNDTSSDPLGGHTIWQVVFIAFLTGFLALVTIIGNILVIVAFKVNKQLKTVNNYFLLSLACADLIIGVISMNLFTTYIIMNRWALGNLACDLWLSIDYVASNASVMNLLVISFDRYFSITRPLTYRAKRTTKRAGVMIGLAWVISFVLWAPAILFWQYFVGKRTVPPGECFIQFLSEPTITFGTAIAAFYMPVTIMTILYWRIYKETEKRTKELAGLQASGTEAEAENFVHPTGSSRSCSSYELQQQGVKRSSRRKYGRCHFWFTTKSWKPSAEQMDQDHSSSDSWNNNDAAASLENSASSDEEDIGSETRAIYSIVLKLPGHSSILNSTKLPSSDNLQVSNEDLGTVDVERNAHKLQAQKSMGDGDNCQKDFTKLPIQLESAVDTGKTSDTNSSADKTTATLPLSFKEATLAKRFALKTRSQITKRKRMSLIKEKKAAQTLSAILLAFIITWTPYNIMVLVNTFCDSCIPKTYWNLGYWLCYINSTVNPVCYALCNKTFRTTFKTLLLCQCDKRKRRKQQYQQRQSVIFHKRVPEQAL

SMILES	Ki (D(2) dopamine receptor) [µM]	Ki [1] [µM]	Ki [2] [µM]	Ki [3] [µM]	Ki [4] [µM]	Ki (Mu-type opioid receptor) [µM]	Ki [5] [µM]	Ki (Histamine H1 receptor) [µM]	Ki [6] [µM]	Ki [7] [µM]	Ki [8] [µM]	Ki (D(1A) dopamine receptor) [µM]	Ki (Glutamate receptor 3) [µM]	Ki [9] [µM]	Ki [10] [µM]	Ki [11] [µM]	Ki [12]
Cc1cccc(NC(=O)N[C@@H]2N=C(c3ccccc3)c3ccccc3N(CC(=O)c3ccccc3C)C2=O)c1	> 10	> 10	> 10	> 10	> 10	> 10	> 10	> 10	> 10	> 10	> 10	> 10	> 10	> 10	> 10	> 10	–
Cc1cccc(NC(=O)N[C@H]2N=C(c3ccccc3)c3ccccc3N(CC(=O)c3ccccc3C)C2=O)c1 [YM022 S-isomer]	–	–	–	–	–	–	–	–	–	–	–	–	–	–	–	–	0.14 µM and 0.49 µM
